Results published in ChEMBL document CHEMBL1155920, “Effects of the aryl linker and the aromatic substituent on the anti-HCV activities of aryl diketoacid (ADK) analogues” (Bioorg Med Chem Lett, 2008).

Key:
Hepatitis C virus [1] = experiment: Inhibition of recombinant HCV 1b NS5B deltac21 RNA polymerase by scintillator counting; set-up: species or system Hepatitis C virus subtype 1b
Hepatitis C virus [2] = experiment: Antiviral activity against HCV subgenomic replicon harboring NS5B gene transfected in human Huh7 cells; format: functional, Hepacivirus hominis; conditions: Huh-7
[3] = Cytotoxicity against human Huh7 cells; format: cell-based, Huh-7
[4] = Inhibition of HCV RNA-dependent RNA polymerase; set-up: species or system Hepacivirus hominis

| Compound | IC50 (Hepatitis C virus [1]) | EC50 (Hepatitis C virus [2]) | CC50 [3] | IC50 [4] |
| --- | --- | --- | --- | --- |
| O=C(O)/C(O)=C/C(=O)c1cccc(OCc2ccc(Cl)cc2)c1 | 28 µM | > 50 µM | > 100 µM |  |
| O=C(O)/C(O)=C/C(=O)c1cccc(NCc2ccc(Cl)cc2)c1 | 0.96 µM | 0.82 µM | > 100 µM |  |
| O=C(O)/C(O)=C/C(=O)c1cccc(OCc2ccccc2)c1 | 4.6 µM | 30 µM | > 100 µM | 8 µM |
| O=C(O)/C(O)=C/C(=O)c1ccccc1OCc1ccccc1 | 30 µM | 40 µM | > 100 µM |  |
| O=C(O)/C(O)=C/C(=O)c1ccc(OCc2ccccc2)cc1 | 8.3 µM | 0.66 µM | > 100 µM |  |
| O=C(O)/C(O)=C/C(=O)c1ccc(OCc2ccc(Cl)cc2)cc1 | 1.5 µM | 3.1 µM | > 100 µM |  |
| O=C(O)/C(O)=C/C(=O)c1cccc(NCc2ccccc2)c1 | 28 µM | 28 µM | > 100 µM | 17 µM |
| O=C(O)/C(O)=C/C(=O)c1ccccc1OCc1ccc(Cl)cc1 | 2 µM | 0.54 µM | > 100 µM |  |
